Assay results as given in patent US20100298347A1, “SUBSTITUTED 2-NAPHTHOIC ACIDS AS ANTAGONISTS OF GPR105 ACTIVITY” (MERCK FROSST CANADA LTD, priority 2007, published 2010).

Molecular target: T1, chimpanzee GPR105 protein (Pan troglodytes, UniProt A0A2J8P2M1)
T1 construct: expressed in transfected cells
T1 sequence (A0A2J8P2M1 1-338): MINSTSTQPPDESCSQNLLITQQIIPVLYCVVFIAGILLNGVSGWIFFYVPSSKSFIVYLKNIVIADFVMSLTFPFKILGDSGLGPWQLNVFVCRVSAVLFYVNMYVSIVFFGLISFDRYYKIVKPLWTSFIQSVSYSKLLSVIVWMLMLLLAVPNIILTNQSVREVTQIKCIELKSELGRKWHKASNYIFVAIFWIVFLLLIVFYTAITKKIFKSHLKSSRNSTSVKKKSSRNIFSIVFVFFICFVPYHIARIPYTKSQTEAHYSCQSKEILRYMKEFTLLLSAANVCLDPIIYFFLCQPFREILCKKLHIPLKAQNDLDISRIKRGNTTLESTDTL
Assay: Cell-Binding Assay: FLIPR calcium signaling in HEK/GPR105/Gqi5 cells, inhibition of UDP-glucose agonist
Type: cell-based
Conditions: HEK cells expressing chimpanzee GPR105 and Gqi5; UDP-glucose agonist at EC80; inhibition of Ca2+ signaling by FLIPR
Experimental: A stable HEK clonal cell line expressing the chimpanzee GPR105 protein and the chimeric G protein Gqi5 was developed. The chimeric Gqi5 forces the coupling of GPR105 through the Gq (calcium) pathway and allows for monitoring of calcium signaling using a calcium binding fluorescent dye and the FLIPR (fluorometric imaging plate reader, MDS Sciex). 12,500 HEK/GPR105/Gqi5 expressing cells were plated in 25 μL Dulbecco's Modified Eagle's Medium (DMEM) containing 10% fetal bovine serum (FBS) onto 384-well, poly-D-lysine coated plates. Cells were incubated overnight at 37° C. and 5% CO2 to form a monolayer. On the following day, 30 μl, of fluorescent no-wash dye was added to the cell monolayer and the plate was incubated for […] at 37° C., 5% CO2. […] of compound in 100% DMSO was added to cell/dye incubation using acoustic dispensing (Echo™, Labcyte). Following a 20 minute incubation of compound at room temperature, 6.25 μL of UDP-glucose agonist (at EC80) in Hank's Balanced Salt Solution (HBSS) containing 20 mM Hepes was added to cells and Ca^2+ signaling was monitored by FLIPR. Quantitation of the % inhibition of Ca^2+ signaling by antagonist was calculated using the maximum fluorescent signal detected. IC50's for the compounds of structural formula (I) were calculated as follows:
a.) Basal=incubation of cells+DMSO+Buffer; b.) EC80=incubation of cells of DMSO+agonist to achieve 80% maximum stimulation of calcium release; c.) Compound=incubation of cells+antagonist in DMSO+EC80 agonist; d.) Calcium release monitored by Fluorescence (RFU relative fluorescence units) using the FLIPR; e.) The percentage of inhibition was calculated according to the equation: (1−(compound sample−Basal)/(EC80−Basal))×100; f.) The percentage of inhibition at each dose was plotted, the Four Parameter Logistic Fit performed to draw the curve and the IC50 is the compound dose where the % inhibition=50%.

Row | IC50 [nM] | SMILES
1 | 7.3 | O=C(O)c1cc(-c2ccsc2)c2ccc(OCc3c(Cl)ccc(Cl)c3Cl)cc2c1
2 | 9.4 | O=C(O)c1cc(-c2ccsc2)c2ccc(OCc3c(Cl)cccc3Cl)cc2c1
3 | 11 | Cc1cccc(C)c1COc1ccc2c(-c3ccc(C(=O)O)cc3)cc(C(=O)O)cc2c1
4 | 12.5 | O=C(O)c1cc(-c2ccsc2)c2ccc(OCc3c(F)cccc3Cl)cc2c1
5 | 16.6 | Cc1cccc(C)c1COc1ccc2c(-c3ccc(CO)cc3)cc(C(=O)O)cc2c1
6 | 17.5 | CC(=O)c1ccc(-c2cc(C(=O)O)cc3cc(OCc4c(C)cccc4C)ccc23)cc1
7 | 17.8 | O=C(O)c1cc(-c2ccsc2)c2ccc(OCc3c(Cl)cccc3Br)cc2c1
8 | 18.4 | Cc1cccc(C)c1COc1ccc2c(-c3ccc(O)cc3)cc(C(=O)O)cc2c1
9 | 20.3 | Cc1ccc(Cl)c(COc2ccc3c(-c4ccsc4)cc(C(=O)O)cc3c2)c1F
10 | 21.7 | O=C(O)c1cc(-c2ccccc2)c2ccc(OCc3c(Cl)ccc(Cl)c3Cl)cc2c1
11 | 22.5 | Cc1cccc(C)c1COc1ccc2c(-c3ccc(C=O)cc3)cc(C(=O)O)cc2c1
12 | 24.3 | O=C(O)c1cc(-c2ccsc2)c2ccc(OCc3c(Br)cccc3Br)cc2c1
13 | 7.5 | O=C(O)c1cc(-c2ccsc2)c2ccc(OCc3c(Cl)cncc3Cl)cc2c1 [drawing 14]
14 | 15.1 | O=C(O)c1cc(-c2ccsc2)c2ccc(OCc3c(Cl)cncc3Cl)cc2c1 [drawing 30]

Further lines, the molecule ahead of its results:

Row | SMILES | IC50 [nM]
15 | O=C(O)c1cc(-c2ccc(C3CCNCC3)cc2)c2ccc(-c3ccc(C(F)(F)F)cc3)cc2c1 | 2.2
16 | O=C(O)c1cc(-c2ccc(-c3cn4cccnc4n3)cc2)c2ccc(-c3ccc(C(F)(F)F)cc3)cc2c1 | 3
17 | O=C(O)c1cc(-c2ccc([C@@H](O)C(F)F)cc2)c2ccc(-c3ccc(C(F)(F)F)cc3)cc2c1 | 5.4
18 | O=C(O)c1cc(-c2ccc(C3(O)CCNCC3)cc2)c2ccc(-c3ccc(C(F)(F)F)cc3)cc2c1 | 6.3
19 | O=C(O)c1cc(-c2csc(C(O)C(F)F)c2)c2ccc(-c3ccc(C(F)(F)F)cc3)cc2c1 (centres unmarked) | 7.1
20 | O=C(O)c1cc(-c2ccsc2)c2ccc(OCc3c(F)cc(F)cc3F)cc2c1 | 10.5
21 | O=C(O)c1cc(-c2ccc([C@@H](O)C(F)(F)F)cc2)c2ccc(-c3ccc(C(F)(F)F)cc3)cc2c1 | 11.3
22 | Cc1cccc(C)c1COc1ccc2c(-c3ccc(S(C)(=O)=O)cc3)cc(C(=O)O)cc2c1 | 11.9
23 | CS(=O)(=O)c1cc(-c2cc(C(=O)O)cc3cc(-c4ccc(C(F)(F)F)cc4)ccc23)cs1 | 12.2
24 | CSc1ccc(-c2ccc3c(-c4ccc([C@@H](O)C(F)F)cc4)cc(C(=O)O)cc3c2)cc1 | 12.4
25 | O=C(O)c1cc(-c2ccsc2)c2ccc(-c3ccc(OC(F)(F)F)cc3)cc2c1 | 12.7
26 | O=C(O)c1cc(-c2ccc(C(O)C(F)(F)F)cc2)c2ccc(-c3ccc(C(F)(F)F)cc3)cc2c1 (centres unmarked) | 13
27 | O=C(O)c1cc(-c2ccc(-c3nnc[nH]3)cc2)c2ccc(-c3ccc(C(F)(F)F)cc3)cc2c1 | 13.3
28 | C[S+]([O-])c1ccc(-c2cc(C(=O)O)cc3cc(-c4ccc(C(F)(F)F)cc4)ccc23)cc1 (centres unmarked) | 13.9
29 | O=C(O)c1cc(-c2ccc([C@@H](O)C(F)F)cc2)c2ccc(-c3ccc(F)cc3)cc2c1 | 14
30 | COc1ccccc1COc1cc(C(=O)O)cc2cc(OCc3c(C)cccc3C)ccc12 | 14.1
31 | Cc1cc(F)cc(C)c1COc1ccc2c(-c3ccsc3)cc(C(=O)O)cc2c1 | 14.4
32 | Cc1cccc(C)c1COc1ccc2c(-c3ccc(C(C)(C)O)cc3)cc(C(=O)O)cc2c1 | 16.1
33 | Cc1cccc(C)c1COc1ccc2c(-c3ccsc3)cc(C(=O)O)cc2c1 | 16.3
34 | Cc1ccc(C(F)(F)F)cc1COc1ccc2c(-c3ccsc3)cc(C(=O)O)cc2c1 | 16.8
35 | Cc1cccc(C)c1COc1ccc2c(-c3ccc4c(c3)OCO4)cc(C(=O)O)cc2c1 | 19.4
36 | Cc1cccc(C)c1COc1ccc2c(OCc3ccccc3)cc(C(=O)O)cc2c1 | 21.2
37 | O=C(O)c1cc(-c2ccsc2)c2ccc(OCc3c(F)cccc3F)cc2c1 | 22.6
38 | CS(=O)(=O)c1cc(-c2cc(C(=O)O)cc3cc(-c4ccc(OC(F)(F)F)cc4)ccc23)cs1 | 23.9
39 | O=C(O)c1cc2cc(-c3ccc(C(F)(F)F)cc3)ccc2c(-c2ccc([C@@H](O)C(F)F)cc2)c1F | 24.8
40 | O=C(O)c1cc2cc(-c3ccc(C(F)(F)F)cc3)ccc2c(-c2ccc([C@H](O)C(F)(F)F)cc2)c1F | 25.5
41 | O=C(O)c1cc(-c2ccsc2)c2ccc(OCc3cc(C(F)(F)F)ccc3Cl)cc2c1 | 26
